{"source": "patent US20220273614A1", "about": "“INTRAVENOUS VITAMIN C THERAPY PROTOCOL FOR THE TREATMENT OF CANCER” (Riordan Clinic, priority 2019, published 2022)", "key": {"[1]": {"assay": "Plasma ascorbate during continuous IVC infusion (Riordan Phase I trial)", "format": "in vivo, human", "conditions": "continuous infusion 150-710 mg/kg/day, cancer patients", "description": "(§1) The second trial of the treatment of cancer patients by continuous infusions was conducted by Dr. Riordan. In this Phase I clinical trial (hereafter referred to as the Riordan trial), patients were administered continuous infusions using an infusion pump [See for example Ref 1]. In the Riordan Clinic trial, patients were treated by continuous infusion, which was administered over much longer periods of time than bolus intermittent treatments. For most patients, the duration of the continuous infusion was at least 20 hours, as the duration of bolus infusion is from one hour to three hours, depending on the dosage.\n(§2) The trial lasted eight weeks and involved terminal patients with poor prognosis. Twenty-four (24) subjects were given continuous IVC at doses between 150 and 710 mg/kg/day (10-50 grams per day). Most of the patients had colon cancer with liver and lung metastasis and three patients had pancreatic or liver cancer. All patients had several chemotherapy/radiation treatments before entering the study.\nThe most obvious effect of IVC therapy was to increase patient vitamin C levels. […] In fact, ten out of twenty-four subjects entered the trial with plasma ascorbate concentrations undetectable by the colorimetric ascorbate assay used at that time, with another four having ascorbate concentrations below the normal range (FIG. 1). IVC infusion increased plasma levels to 1 mM. […]"}, "terminal cancer patients [2]": {"system": "terminal cancer patients", "assay": "Lymphocyte and neutrophil counts and neutrophil-to-lymphocyte ratio in cancer patients on continuous IVC (updated analysis of Riordan trial)", "format": "in vivo, human", "description": "as §1, §2\n(§3) Recently, previously unpublished parameters from the clinical study were analyzed, including blood chemistry and blood count parameters that are reportedly related to patient prognosis and degree of inflammation [See for example Ref 2]. This included: absolute neutrophil and lymphocyte counts and the neutrophil-to-lymphocyte ratio; lactate dehydrogenase, an enzyme involved in tumor initiation, metastasis, and recurrence; creatinine, the depletion of which is associated with cachexia; and glucose, as hyperglycemia is common in cancer patients."}, "terminal cancer patients [3]": {"system": "terminal cancer patients", "assay": "Blood chemistry (lactate dehydrogenase, glucose) and survival in cancer patients on continuous IVC (updated analysis of Riordan trial)", "format": "in vivo, human", "description": "as §1, §2, §3"}, "terminal cancer patients [4]": {"system": "terminal cancer patients", "assay": "Safety and adverse events of continuous IVC infusion (Riordan trial)", "format": "in vivo, human", "description": "as §1\nas §2, with “cancer.” for “cancer. All patients had several chemotherapy/radiation treatments before entering the study.”"}, "[5]": {"system": "patients suffering from cancer", "assay": "Pulse-press intravenous vitamin C protocol in cancer patients (Example 3)", "format": "in vivo, human", "description": "Intravenous vitamin C therapy is given by intermittent, high dose infusion that involves administering high-dose vitamin C (15-100 grams) over a 1-2 hour window and repeated twice weekly (every 2-4 days). The intermittent frequency of high-dose administration is referred to as a PULSED approach or as a PULSE dose.\nAs an adjunct to high-dose intermittent vitamin C infusions, experiments described herein have led to the developments of a method for administering continuous low to mid doses of vitamin C infusion using an elastomeric pump (non-electric) infusion pump over an 8 to 48 hour window. This method of continuous infusion targets a therapeutic dose anywhere between 4 to 50 grams of vitamin C per infusion window and is referred to as a PRESS approach or a PRESS dose.\nThe intravenous vitamin C+(IVC+) protocol for the treatment of cancer, and other chronic conditions, described herein combines the pulse approach with a press protocol into a PULSE-PRESS approach whereby vitamin C infusions alternate between a high-dose rapid infusion with a low to mid dose continuous infusion.\nThis clinical application of the IVC+ Protocol is centered on a 2-day cycle of a rapid PULSE infusion immediately followed by a PRESS continuous infusion at a rate of […] of Vitamin C per hour. Over the two week period, each pulse dose of vitamin C is increased to a therapeutic dose as outlined in the original Riordan IVC Protocol [See for example. Ref 1]. Each week back to back pulse-press doses are given followed by a final pulse dose leading into a rest period. These cyclic rest periods are important wherein they provide recovery time necessary for the patient to assimilate the oxidative stress generated within the body.\nThe protocol has been used on about six subjects to ascertain safety, feasibility and usability of the pump and in coordinating the process with existing therapies. The types of cancer for these patients varied."}, "terminal cancer patients [6]": {"system": "terminal cancer patients", "conditions": "10 g/day continuous IV infusion for 10 days, then oral 10-30 g/day; 100 terminal cancer patients; cited from earlier work"}, "[7]": {"conditions": "rate of increase of LDH before vs after treatment"}, "[8]": {"conditions": "a patient suffering from cancer"}}, "note": "“Also recorded” adds a separate entry of the source.", "data": [{"smiles": "O=C1O[C@H]([C@@H](O)CO)C(O)=C1O", "note": "[IVC, L-ascorbic acid]", "values": [{"measurement": "plasma ascorbate level reached during IVC infusion", "setting": "[1]", "result": 1, "unit": "mM"}, {"measurement": "median improvement in the lymphocyte count", "setting": "terminal cancer patients [2]; all patients with lymphocyte levels lower than normal range, continuous IVC", "result": 22, "unit": "%"}, {"measurement": "neutrophil counts, tendency during treatment", "setting": "terminal cancer patients [2]; most of the patients", "result": "normalization of the neutrophil counts"}, {"measurement": "rate of growth (change) of neutrophil-to-lymphocyte ratio (NLR)", "setting": "terminal cancer patients [2]; one week before treatment vs during treatment, continuous IVC", "result": "tended to decrease the rate of growth of NLR; also recorded: rate of change was decreased"}, {"measurement": "neutrophil counts", "setting": "terminal cancer patients [2]; patients for whom neutrophil counts are elevated", "result": "reducing neutrophil counts"}, {"measurement": "lymphocyte and neutrophil counts", "setting": "terminal cancer patients [2]; patients in whom these numbers are below normal", "result": "increase lymphocyte and neutrophil counts"}, {"measurement": "median improvement in the lymphocyte count", "setting": "terminal cancer patients [2]; patients with severe lymphopenia who completed treatment, continuous IVC", "result": 69, "unit": "%"}, {"measurement": "median survival time", "setting": "terminal cancer patients [3]; participants with initial LDH higher than normal range (LDH>245 U/L)", "result": 95, "unit": "days"}, {"measurement": "blood glucose levels during IVC therapy", "setting": "terminal cancer patients [3]; patients with concentrations higher than normal range", "result": "decreased"}, {"measurement": "patients with LDH rate of growth decreased", "setting": "terminal cancer patients [3]; [7]", "result": "38 % of patients"}, {"measurement": "patients with LDH rate of growth increased", "setting": "terminal cancer patients [3]; [7]", "result": "28.6 % of patients"}, {"measurement": "patients with LDH rate of growth not changed", "setting": "terminal cancer patients [3]; [7]", "result": "33.4 % of patients"}, {"measurement": "median survival time", "setting": "terminal cancer patients [3]; subjects with normal initial LDH values", "result": 173, "unit": "days"}, {"measurement": "Grade 3 adverse events", "setting": "terminal cancer patients [4]; considered possibly related to the ascorbate therapy", "result": "Most of the Grade 3 events involved hypokalemia"}, {"measurement": "side effects, overall severity", "setting": "terminal cancer patients [4]; continuous IVC infusion trial", "result": "mostly minor"}, {"measurement": "renal function indicators BUN and creatinine", "setting": "terminal cancer patients [4]; during therapy", "result": "remained relatively stable"}, {"measurement": "uric acid", "setting": "terminal cancer patients [4]; during therapy", "result": "decreased during therapy"}, {"measurement": "grade of the most common side effects", "setting": "terminal cancer patients [4]; in vivo", "result": "generally minor (Grade 1)"}, {"measurement": "dry skin or mouth", "setting": "terminal cancer patients [4]; of 24 subjects", "result": 7, "unit": "subjects"}, {"measurement": "edema", "setting": "terminal cancer patients [4]; of 24 subjects", "result": 7, "unit": "subjects"}, {"measurement": "fatigue", "setting": "terminal cancer patients [4]; of 24 subjects", "result": 6, "unit": "subjects"}, {"measurement": "injector port occlusion", "setting": "terminal cancer patients [4]; of 24 subjects", "result": 10, "unit": "subjects"}, {"measurement": "nausea", "setting": "terminal cancer patients [4]; of 24 subjects", "result": 11, "unit": "subjects"}, {"measurement": "subjects with BUN increases during therapy", "setting": "terminal cancer patients [4]; of 24 subjects", "result": "four"}, {"measurement": "development of chemo resistance", "setting": "[5]; [8]", "result": "no signs of the development of chemo resistance"}, {"measurement": "efficacy of treatment", "setting": "[5]; [8]", "result": "appeared efficacious"}, {"measurement": "tolerability", "setting": "[5]; [8]", "result": "well-tolerated"}, {"measurement": "tolerability", "setting": "[5]; pulse press protocol, about six subjects, various cancers", "result": "well tolerated"}, {"measurement": "survival time and quality of life versus patients who had not received IVC", "setting": "terminal cancer patients [6]", "result": "increased survival time and improved quality of life"}]}]}
